PMC9029856, “Impact of Different [Tc(N)PNP]-Scaffolds on the Biological Properties of the Small cRGDfK Peptide: Synthesis, In Vitro and In Vivo Evaluations” (Molecules, 2022)
Like-named read-outs stand apart in the source and are kept apart here.

Key:
[1] = type: physicochemical
Description: To explore the impact of the PNP ligand on the lipophilicity of the complexes, Log Ps in a mixture of n-octanol and PBS were determined. The lipophilicity decreased in the order ^99mTc1 > ^99mTc2 > ^99mTc3. The lipophilic character of each compound correlated well with the corresponding HPLC retention time and protein binding behavior.
Determination of log P values. n-Octanol/PBS partition coefficients were determined by vortex mixing (20 min) 3.0 mL of n-octanol, 3.0 mL of PBS and 100 µL of the radiolabeled compound purified as above. After centrifugation (3000 g for 10 min), aliquots (100 µL) of both the organic and the aqueous phases were collected and counted with a γ-counter.

[2] = type: in vitro ADME; details: serum
Description: Thus, to have some predictive indications of the metabolic outcome of our compounds, the binding to serum proteins and the enzymatic biotransformation of ^99mTc1–3 in blood and tissue homogenates were assessed in vitro by incubating the purified compounds at 37 °C in human and mouse sera as well as in murine liver and kidney homogenates.
Protein Binding. The affinity of the ^99mTc(N) complexes toward the serum proteins was evaluated by chromatographic methods.
Upon incubation, 25 µL of each sample was withdrawn and loaded on a pre-spun (735× g for 2 min) Sephadex G-50 mini-column. The column was centrifuged at 735 × g for 1 min. The collected eluate and the column were counted in a NaI-scintillation counter. The protein-bound complex was calculated as the percentage of the total activity.

[3] = system: human melanoma M21 (αvβ3 positive) cells; assay: Cell uptake and internalization in M21 cells; type: cell-based
Description: (§1) Cell uptake and internalization studies were performed on receptor-positive human melanoma M21 (expressing high levels of αvβ3 integrin and moderate level of integrin αvβ5), human breast cancer MCF7 (exclusively expressing αvβ5), and receptor-negative human melanoma M21L cell lines. The expression of αvβ3 and αvβ5 by cells was already evaluated by flow cytometry (Table 2). The stability of each radiolabeled peptide in the culture media before and after cell exposure was assessed.
(§2) Experiments were conducted in suspension at 37 °C. The working conditions were set up to avoid cell damage and/or death. With the use of these information, the cells were pre-incubated in sterile glass tubes at 37 °C for 10 min, in the presence or not of cRGDfK pentapeptide (50 µL; 1.65 mM).
(§3) Then, 1 mL of the cell suspension (1 × 10^6 cells/mL) was incubated with intermittent agitation with 10 µL (10 µCi) of ^99mTc1–3. At 90 min, the cells were moved in Eppendorf microcentrifuge tubes (1.5 mL) and the incubation was interrupted by centrifugation (3000 rpm for 5 min at 10 °C). The supernatant (S1) was separated from the pellet. The cell pellet was treated 10 min at room temperature with saline acetate buffer (CH3COOH 0.2M/NaCl 0.5 M) to remove the membrane-bound compound. After centrifugation (3000 rpm for 10 min at 10 °C), the supernatant (S2) was separated from the pellet (P1), and each fraction was collected, placed in a separated counting tube, and the activity was measured using a NaI counter (Cobra II, Packard) to estimate both the cell uptake and the internalized fraction.
(§4) The uptake of complexes was expressed as percentage cell uptake of the total activity on 10^6 cells (% cell uptake/10^6 cells).
(§5) All assessments were conducted in triplicate for three experiments.

[4] = system: receptor-negative human melanoma M21L cells; assay: Cell uptake and internalization in M21L cells; type: cell-based; details: negative M21L cell line, 37 °C, 90 min
Description: as §1, §2, §3, §4, §5

[5] = system: M21 and M21L melanoma tumors; details: cited from earlier work; for Blood / Heart / Intestine / Kidneys / Liver / Muscle / Stomach: tumor-bearing mice

N=C(N)NCCC[C@@H]1NC(=O)[C@H](CCCCNC(=O)c2ccc(NN)nc2)NC(=O)[C@@H](Cc2ccccc2)NC(=O)[C@H](CC(=O)O)NC(=O)CNC1=O [^99mTc-HYNIC-cRGDfK, metal not drawn]
logP [1]: -3.52
fraction unbound [2]: 0.977
cell uptake (sum of surface bound and internalized radioactivity), blocked ([3]; M21 blocked by an excess of cold cRGDfK, 37 °C, 90 min): 0.85 ± 0.08 % cell uptake/10^6 cells
cell uptake (sum of surface bound and internalized radioactivity) ([3]; M21 unblocked, 37 °C, 90 min): 1.50 ± 0.08 % cell uptake/10^6 cells
specific/nonspecific ratio, internalized radioactivity only ([3]; internalized radioactivity, melanoma cell lines): 6.6
ratio between specific and non-specific uptake ([3]; total uptake, melanoma cell lines): 1.15
cell uptake (sum of surface bound and internalized radioactivity) [4]: 1.30 ± 0.15 % cell uptake/10^6 cells
M21/M21L ratio ([5]; 1 h p.i.): 3.21
M21/blood ratio ([5]; 1 h p.i.): 2.79
M21/kidneys ratio ([5]; 1 h p.i.): 0.74
M21/liver ratio ([5]; 1 h p.i.): 1.03
M21/muscle ratio ([5]; 1 h p.i.): 3.59
M21L tumor uptake ([5]; 1 h p.i.): 0.85 ± 0.20 %IA/g
M21 tumor uptake ([5]; 1 h p.i.): 2.73 ± 0.26 %IA/g
M21/blood ratio ([5]; 4 h p.i.): 4.58
M21/kidneys ratio ([5]; 4 h p.i.): 0.73
M21/liver ratio ([5]; 4 h p.i.): 1.20
M21/muscle ratio ([5]; 4 h p.i.): 6.05
M21 tumor uptake ([5]; 4 h p.i.): 2.06 ± 0.37 %IA/g
Blood ([5]; 1 h p.i.): 0.98 ± 0.04 %IA/g
Heart ([5]; 1 h p.i.): 1.01 ± 0.05 %IA/g
Intestine ([5]; 1 h p.i.): 2.04 ± 0.18 %IA/g
Kidneys ([5]; 1 h p.i.): 3.68 ± 0.13 %IA/g
Liver ([5]; 1 h p.i.): 2.63 ± 0.14 %IA/g
Muscle ([5]; 1 h p.i.): 0.76 ± 0.69 %IA/g
Stomach ([5]; 1 h p.i.): 2.50 ± 0.75 %IA
Blood ([5]; 4 h p.i.): 0.45 ± 0.02 %IA/g
Heart ([5]; 4 h p.i.): 0.64 ± 0.09 %IA/g
Intestine ([5]; 4 h p.i.): 1.29 ± 0.25 %IA/g
Kidneys ([5]; 4 h p.i.): 2.81 ± 0.37 %IA/g
Liver ([5]; 4 h p.i.): 1.71 ± 0.28 %IA/g
Muscle ([5]; 4 h p.i.): 0.34 ± 0.05 %IA/g
Stomach ([5]; 4 h p.i.): 1.28 ± 0.22 %IA
